The record followed here is BindingDB's records for patent US11208411 (The Regents of the University of California; Washington …, 2021).

The target of the experiment is Proto-oncogene tyrosine-protein kinase Src (Homo sapiens, UniProt P12931). As to the kind of experiment: Expression and Purification of Active Kinases.

The structures appear in SMILES notation.

Chain of Proto-oncogene tyrosine-protein kinase Src (P12931 2-536 limits assumed): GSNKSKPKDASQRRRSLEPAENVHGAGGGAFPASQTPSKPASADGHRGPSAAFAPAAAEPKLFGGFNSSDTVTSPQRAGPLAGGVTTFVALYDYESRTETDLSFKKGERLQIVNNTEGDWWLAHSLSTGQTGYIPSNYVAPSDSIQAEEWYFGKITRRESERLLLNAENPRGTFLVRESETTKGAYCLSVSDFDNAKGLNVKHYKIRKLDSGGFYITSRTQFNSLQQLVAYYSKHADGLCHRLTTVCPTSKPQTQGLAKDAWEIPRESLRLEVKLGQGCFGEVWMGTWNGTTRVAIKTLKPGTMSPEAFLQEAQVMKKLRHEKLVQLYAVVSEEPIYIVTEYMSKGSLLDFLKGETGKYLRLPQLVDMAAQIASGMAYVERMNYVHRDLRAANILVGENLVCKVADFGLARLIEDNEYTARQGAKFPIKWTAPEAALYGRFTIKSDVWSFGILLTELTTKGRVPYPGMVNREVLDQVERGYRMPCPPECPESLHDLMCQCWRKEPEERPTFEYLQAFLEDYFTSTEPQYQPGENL

In turn, `CC(C)(C)n1nc(Cc2coc3ccccc23)c2c(N)ncnc21` [US11208411, Cmpd LJQ-145] returned an IC50 of 1.57 µM.

The IC50 is the concentration needed to halve the response being measured.
